Read-outs that look alike come from different tables or passages of the source.
Assays:
[1] = test system: human colon cancer Colo205 cells; test: Antitumor effect of Flt-3 inhibitor and 5-fluorouracil (5-FU) in mouse models transplanted with Colo205 cells; type: in vivo; settings: day 7; BALB/cAJcl-nu mice, s.c. Colo205; Compound 9 20 mg/kg oral twice a day x 5 days; 5-FU 10 mg/kg i.v. once a day x 5 days
[2] = test system: human renal cancer Caki-1 cells; test: Antitumor effect of Flt-3 inhibitor and sunitinib in mouse models transplanted with Caki-1 cells; settings: day 18; BALB/cAJcl-nu mice, s.c. Caki-1 tumor pieces; Compound 9 50 mg/kg oral twice a day days 0-4; sunitinib 40 mg/kg oral twice a day x 5 days (alone days 0-4, combined days 7-11)
[3] = test system: human acute myeloid leukemia MOLM-13 cells; test: Antitumor effect of Flt-3 inhibitor and cytarabine in mouse models transplanted with MOLM-13 cells; settings: day 14; scid mice, s.c. MOLM-13; Compound 9 5 mg/kg oral twice a day x 14 days; cytarabine 75 mg/kg i.v. once a day x 5 days
[4] = test system: human pancreatic cancer MIA-Paca-2 cells; test: Antitumor effect of Flt-3 inhibitor and gemcitabine in mouse models transplanted with MIA-Paca-2 cells; type: in vivo; settings: day 24; scid mice, s.c. MIA-PaCa-2; Compound 9 25 mg/kg oral twice a day x 5 days; gemcitabine 60 mg/kg i.v. days 0, 3, 7, 10
Description: [formula] […] A. […] B. […] C. Gemcitabine alone group: 60 mg/kg (once a day/days zero, 3, 7, and 10 after the start of administration) D.

[5] = test system: human pancreatic cancer MIA-Paca-2 cells; test: Antitumor effect of Flt-3 inhibitor and cetuximab in mouse models transplanted with MIA-Paca-2 cells; type: in vivo; settings: day 24; scid mice, s.c. MIA-PaCa-2; Compound 9 50 mg/kg oral twice a day x 5 days; cetuximab 2.5 mg/head i.v. days 0, 3, 6, 9, 12
[6] = test system: human renal cancer Caki-1 cells; settings: day 10; BALB/cAJcl-nu mice, s.c. Caki-1 tumor pieces; Compound 9 25 mg/kg oral twice a day x 5 days; erlotinib 50 mg/kg oral once a day x 5 days
[7] = test system: human acute myeloid leukemia MOLM-13 cells; test: Antitumor effect of Flt-3 inhibitor and Hsp90 inhibitor in mouse models transplanted with MOLM-13 cells; type: in vivo; settings: day 7; scid mice, s.c. MOLM-13; Compound P 12.5 mg/kg i.v. twice a day x 5 days; Compound 9 10 mg/kg oral twice a day x 5 days
[8] = test system: human acute myeloid leukemia HL-60 cells; test: Antitumor effect of Flt-3 inhibitor and daunorubicin in mouse models transplanted with HL-60 cells; type: in vivo; settings: day 17; scid mice, s.c. HL-60; Compound 9 20 mg/kg oral twice a day x 14 days; daunorubicin 2.5 mg/kg i.v. once a day x 3 days
Description: B. Compound 9 alone group: 20 mg/kg (twice a day×14 days)
C. Daunorubicin alone group: 2.5 mg/kg (once a day×3 days)
D. Compound 9+daunorubicin: 20 mg/kg (twice a day×14 days) for Compound 9, and 2.5 mg/kg (once a day×3 days) for daunorubicin

[9] = test system: human colon cancer Colo205 cells; test: Antitumor effect of Flt-3 inhibitor and irinotecan in mouse models transplanted with Colo205 cells; type: in vivo; settings: day 11; BALB/cAJcl-nu mice, s.c. Colo205; Compound 9 20 mg/kg oral twice a day x 5 days; irinotecan 67 mg/kg i.v. days 0 and 3
Description: [formula] […] Irinotecan was suspended in physiological saline at a concentration of 6.7 mg/mL. […] A. […] B. […] C. Irinotecan alone group: 67 mg/kg (once a day/days zero and 3 after the start of administration) D.

In the case of `O=c1[nH]cc(F)c(=O)[nH]1` [Compound 5-FU, 5-fluorouracil, reference compound], the “T/C (V/V0 of group divided by V/V0 of negative control group)” value [1] was 0.81.

`O=C(c1ccc(/C=C/c2n[nH]c3ccccc23)cc1)N1CCNCC1` [Compound 9] was tested, and the “T/C (V/V0 of group divided by V/V0 of negative control group)” value [2] was 0.50, the “T/C (V/V0 of group divided by V/V0 of negative control group)” value [1] was 0.68 and the “T/C (V/V0 of group divided by V/V0 of negative control group)” value [3] was 0.29. For the same compound, the “T/C (V/V0 of group divided by V/V0 of negative control group)” value [4] was 0.84, the “T/C (V/V0 of group divided by V/V0 of negative control group)” value [5] was 0.59 and the “T/C (V/V0 of group divided by V/V0 of negative control group)” value [6] was 0.71. For the same compound, the “T/C (V/V0 of group divided by V/V0 of negative control group)” value [7] was 0.29, the “T/C (V/V0 of group divided by V/V0 of negative control group)” value [8] was 0.42 and the “T/C (V/V0 of group divided by V/V0 of negative control group)” value [9] was 0.75.

With `CCc1c(O)cc(O)c(C(=O)c2ccc(OCCN3CCOCC3)c(OC)c2)c1CC(=O)N(CCOC)CCOC` [Compound P, 2-{2-ethyl-3,5-dihydroxy-6-[3-methoxy-4-(2-morpholinoethoxy)benzoyl]pheny1]-N,N-bis(2-methoxyethyl)acetamide, reference compound] the “T/C (V/V0 of group divided by V/V0 of negative control group)” value [7] was 0.53.

In the case of `Nc1ccn([C@@H]2O[C@H](CO)[C@@H](O)[C@@H]2O)c(=O)n1` [Cytarabine, reference compound], the “T/C (V/V0 of group divided by V/V0 of negative control group)” value [3] was 0.62.

With `COc1cccc2c1C(=O)c1c(O)c3c(c(O)c1C2=O)C[C@@](O)(C(C)=O)C[C@@H]3O[C@H]1C[C@H](N)[C@H](O)[C@H](C)O1` [Daunorubicin, reference compound] the “T/C (V/V0 of group divided by V/V0 of negative control group)” value [8] was 0.61.

For `C#Cc1cccc(Nc2ncnc3cc(OCCOC)c(OCCOC)cc23)c1` [Erlotinib, reference compound], the “T/C (V/V0 of group divided by V/V0 of negative control group)” value [6] was 0.89.

`Nc1ccn([C@@H]2O[C@H](CO)[C@@H](O)C2(F)F)c(=O)n1` [Gemcitabine, reference compound] was tested, and the “T/C (V/V0 of group divided by V/V0 of negative control group)” value [4] was 0.57.

`CCc1c2c(nc3ccc(OC(=O)N4CCC(N5CCCCC5)CC4)cc13)-c1cc3c(c(=O)n1C2)COC(=O)[C@]3(O)CC` [Irinotecan, reference compound] was tested, and the “T/C (V/V0 of group divided by V/V0 of negative control group)” value [9] was 0.65.

`CCN(CC)CCNC(=O)c1c(C)[nH]c(/C=C2\C(=O)Nc3ccc(F)cc32)c1C` [Sunitinib, reference compound] was tested, and the “T/C (V/V0 of group divided by V/V0 of negative control group)” value [2] was 0.62.

From US20100104567A1, “PHARMACEUTICAL COMPOSITION” (KYOWA HAKKO KIRIN CO., LTD., priority 2007, published 2010)
